Data from patent US8609695B2, “Methods of treating and/or suppressing insulin resistance” (Endorecherche, Inc., priority 1999, dated 2013).
Marks after values point to notes of the source that are not given here.

Assays:
ovariectomized rat = assay: 35-week treatment, total body fat and body weight of ovariectomized rat (Example 1); type: in vivo; settings: OVX rats; for Body Weight at Necropsy: 37 weeks
Experimental: The animals were housed three per cage and were allowed free access to tap water and a pelleted certified rodent feed (Lab Diet 5002, Ralston Purina, St-Louis, Mo.). The experiment was conducted in a Canadian Council on Animal Care approved facility in accordance with the CCAC Guide for Care and Use of Experimental Animals. […] The appropriate compound or vehicle alone was given once daily by oral gavage in 0.5 ml/rat for 37 weeks. Approximately 24 hours after the last dosing, overnight fasted animals were killed by exsanguination at the abdominal aorta under isoflurane anesthesia. After 35 weeks of treatment, individual rats under anesthesia with isoflurane had their whole body skeleton as well as their right femur scanned using dual energy x-ray absorptiometry (DEXA; QDR 4500A, Hologic, Waltham, Mass.) and a Regional High Resolution Scan software. The scan field size used for the whole body was 30.492×17.912 cm, the resolution was 0.1512×0.0640 cm and the scan speed was 2.499 mm/sec. The fat body composition of the whole body was determined. Data are expressed as the means±SEM. Statistical significance was determined according to the multiple-range test of Duncan-Kramer (1956).

ovariectomized rats = assay: 20-day treatment with EM-652.HCl, body fat, body weight and energy balance (Example 3); type: in vivo, rat; settings: OVX rats, 20 days
Experimental: Eight to ten week-old female Sprague-Dawley rats (Crl:CD(SD)Br) (Charles River Laboratory, St-Constant, Canada) weighing approximately 200-225 g at the start of treatment were used. The animals were acclimatized to the environmental conditions (temperature: 22±3° C.; 10-h light-14-h dark cycles, lights on at 06:00 h) for 1 week before starting the experiment. The animals were housed individually in stainless steel cages of conventional design and were allowed free access to tap water and a high carbohydrate mixed diet composed of (g/100 g): Corn starch, 31.2; Dextrose, 31.2; Casein, 20.0; corn oil, 6.4; dl-Methionine, 0.3; Vitamine mix, 1.0; AIN-76 mineral mix, 4.9 and fiber, 5.0. The experiment was conducted in a Canadian Council on Animal Care approved facility in accordance with the CCAC Guide for Care and Use of Experimental Animals.
On day 1 of the study, the animals of the appropriate groups were bilaterally ovariectomized (OVX) under isoflurane anesthesia. […] The treatment with EM-652.HCl or vehicle alone (0.4% methylcellulose in water) was initiated on day 2 of the study. The compound or vehicle was given once daily by oral gavage in 0.5 ml/rat for 20 days. Body weights and food consumption were recorded every 2 days.
Approximately 24 hours after the last dosing, overnight fasted animals were anesthesized with ketamine-xylazine and blood drawn by cardiac puncture. The blood was collected as well as white and brown adipose tissues.
Body weight, food intake, and body gains in energy, fat, and protein were determined according to Deshaies et al, Am. J. Physiol., 1997; 273, E355-E362 (1997).
Lipoprotein lipase activities were determined according to Deshaies et al, Am. J. Physiol., 1997; 273, E355-E362 (1997).

[1] = tested on: ovariectomized female rats; assay: 20-day treatment with EM-652.HCl, estradiol and DHEA, body fat (Example 6); type: in vivo, Rattus norvegicus; settings: OVX rats
Text: d) Diet: Certified Rodent feed (Lab Diet #5002, pellets) and tap water were provided ad libitum during the acclimation period. During the study period, the rats received an enriched carbonhydrate diet ad libitum. The enriched diet (diet #3) was composed of (g/100 g): Corn starch, 31.2; Dextrose, 31.2; Casein, 20.0; Corn oil, 6.4; dl-Methionine, 0.3; Vitamin mix, 1.0; AIN-76 mineral mix, 4.9; Fiber, 5.0.
80 rats were assigned to 8 groups of 10 rats for the conduct of the study outlined below:
On day 0 of the study, rats from groups 2 to 8 were ovariectomized, by bilateral flank incision, under Isoflurane-induced anesthesia. Rats from group 1 were sham-operated.
The administration of the test articles or vehicle began on Day 1 (the day following the ovariectomy). The tested compounds were given as suspensions in 0.4% methylcellulose by oral gavage (0.5 ml/gavage) for 20 days.
On day 21 of the study (prior to the necropsy), body composition was determined on whole body skeleton of animals under Isoflurane-induced anesthesia using dual energy x-ray absorptiometry (DEXA; QDR 4500A, Hologic) in order to determine the effect of treatments on fat percentage.
Right and left retroperitoneal adipose tissue were collected and weighed.

[2] = tested on: ovariectomized female rats; assay: SERM comparison, energy balance and lipid-lipoprotein metabolism (Example 10); type: in vivo, Rattus norvegicus; settings: OVX rats, 20 days
Experimental: For this purpose, tested compounds were administered by oral gavage for 20 days (0.5 mg/rat for each compound; 0.5 ml/rat) in 0.4% methylcellulose to ovariectomized female rats.
d) Diet: • During acclimation period, rats received a certified rodent diet (Lab Diet #5002, pellet) and tap water ad libitum while during study period, they received a high carbonhydrate diet (diet #3) and tap water ad libitum. The diet was composed of (g/100 g): Corn starch, 31.2; Dextrose, 31.2; Casein, 20.0; corn oil, 6.4; dl-Methionine, 0.3; Vitamine mix, 1.0; AIN-76 mineral mix, 4.9; fiber, 5.0. Rats were fasted (with access to water only) around 07 h00 the morning of their necropsy Randomization:
Test group: Seventy-seven rats were assigned to 8 groups of 9-10 rats for conduct of the study outlined below.
On day 0 of the study, rats from group 2 to 8 were ovariectomized (by bilateral flank incision) under Isoflurane anesthesia. Rats from group 1 were sham-operated.
Rats were weighed on day 0 (surgery) and then, every 2 days during study period as well as on the day of necropsy.
Food consumption was evaluated every 2 days.
In order to determine the effect of treatments on fat percentage, body composition was measured on Day 17 of the study using dual energy x-ray absorptiometry (DEXA; QDR 4500A, Hologic, Waltham, Mass.).
On day 21 of the study, approximately 24 hours after the last dosing and 6 hours of fasting, animals under Ketamine-Xylazine anesthesia were killed by exsanguination at the abdominal aorta.
Blood lipids (Total cholesterol and Triglycerides) and glucose were measured on frozen serum samples using the Boehringer Mannheim Diagnostic Hitachi 911 Analyzer (Boehringer Mannheim Diagnostic Laboratory Systems). Circulating hormones and substrates (Insulin and leptin) were measured on serum sample using the following kits: • Insulin: Linco RIA kit • Leptin: Linco RIA kit Organs and Tissues Collected
The following tissues were collected and weighed: • Muscle (right soleus and right VLM), fat (right retroperitoneal and right inguinal), and brown adipose tissue.
A piece of ˜0.1 g of all tissues (except uterus and vagina) were frozen in liquid nitrogen and kept at −80 C for later determination of lipoprotein-lipase (LPL) activity.

[3] = tested on: ovariectomized female rats; assay: 34-week treatment with ethynyl estradiol, EM-652.HCl, Raloxifene and DHEA, body fat (Example 7); type: in vivo, rat; settings: OVX rats, 34 weeks
Experimental: The objective of this study was to assess the effect of a combined treatment with EM-652.HCl, and DHEA on body fat and body weight parameters in ovariectomized rats. For this purpose, ovariectomized rats received daily administration of EM-652.HCl (1 mg/kg), and DHEA (80 mg/kg) alone or in combination, for 34 weeks. EM-652.HCl was administered orally while DHEA was applied topically on dorsal skin. One group of animals was orally treated with 17-ethynylestradiol (0.1 mg/kg) and Raloxifene (EM-1105; 1 mg/kg) for comparison.
Ten to twelve week-old female Sprague-Dawley rats (Crl:CD(SD)Br) weighing approximately 235-250 g at start of treatment were used. Eighty rats were randomly distributed between 7 groups of 11 to 12 animals per group as follows: 1) Intact control; 2) OVX control; 3) OVX+EE2 (0.1 mg/kg); 4) OVX+raloxifene (1 mg/kg); 5) OVX+EM-652.HCl (1 mg/kg); 6) OVX+DHEA (80 mg/kg); 7) OVX+EM-652.HCl+DHEA. On day 1 of the study, the animals of the appropriate groups were bilaterally ovariectomized (OVX) under isoflurane anesthesia. EM-652.HCl, raloxifene and EE2 (Steraloids) were administered once daily by oral gavage as suspension in 0.4% methylcellulose (0.5 ml/rat) for 34 weeks while DHEA was applied topically once daily on dorsal skin as a solution in 50% ethanol-50% propylene glycol (0.5 ml/rat) for the same time period. Approximately 24 hours after the last dosing, overnight fasted animals were killed by exsanguination at the abdominal aorta under isoflurane anesthesia. Left and right retroperitoneal adipose tissues were collected and weighed.
After 34 weeks of treatment, individual rats under anesthesia with isoflurane had their whole body skeleton scanned using dual energy x-ray absorptiometry (DEXA; QDR 4500A, Hologic, Waltham, Mass.) and a Regional High Resolution Scan software. The body composition (including fat percentage) was determined.
Data were expressed as the means±SEM.

[4] = EM-652.HCl 0.5 mg/rat oral once daily, E2 implant
[5] = high carbohydrate diet, 0.5 mg/rat oral gavage
[6] = EE2 0.1, Raloxifene 1, EM-652.HCl 1 mg/kg oral, DHEA 80 mg/kg topical

SMILES	Body Weight at Necropsy (ovariectomized rat; 0.01 mg/kg orally once daily)	Body Weight at Necropsy (ovariectomized rat; 0.03 mg/kg orally once daily)	Body Weight at Necropsy (ovariectomized rat; 0.1 mg/kg orally once daily)	Body Weight at Necropsy (ovariectomized rat; 0.3 mg/kg orally once daily)	Body Weight at Necropsy (ovariectomized rat; 1 mg/kg orally once daily)	Brown adipose tissue Lipoprotein lipase activity [2, 5]	Brown adipose tissue weight [2, 5]	Cumulative food intake [2, 5]	Serum glucose [2, 5]	Serum insulin [2, 5]	Serum leptin [2, 5]	Serum total cholesterol [2, 5]	Serum triglycerides [2, 5]	Soleus muscle Lipoprotein lipase activity [2, 5]	Soleus muscle weight [2, 5]	Total weight [2, 5]	VastusLateralis muscle weight [2, 5]	White adipose tissue inguinal Lipoprotein lipase activity [2, 5]	White adipose tissue inguinal weight [2, 5]	White adipose tissue retroperitoneal Lipoprotein lipase activity [2, 5]	also measured
CC1=C(c2ccc(OC(=O)C(C)(C)C)cc2)[C@H](c2ccc(OCCN3CCCCC3)cc2)Oc2cc(OC(=O)C(C)(C)C)ccc21 [EM-800]	385 ± 17 g	364 ± 10 g	369 ± 17 g	359 ± 7 g	368 ± 6 g																decrease of the OVX-induced stimulation of body fat (DEXA) (ovariectomized rat; 0.01 mg/kg orally once daily, 35 weeks, FIG. 1): 78%
C[C@]12CC[C@@H]3c4ccc(O)cc4CC[C@H]3[C@@H]1CC[C@@H]2O [E2, estradiol]						1198 ± 62 μU/g protein	0.211 ± 0.021 g	255 ± 9 g	11.8 ± 1.4 mmol/L	0.070 ± 0.007 nmol/L	0.309 ± 0.097 ng/mL	2.03 ± 0.15 mmol/L	0.43 ± 0.04 mmol/L	10.9 ± 2.0 μU/g protein	0.086 ± 0.003 g	198 ± 4 g	0.718 ± 0.026 g	416 ± 74 μU/g protein	0.158 ± 0.019 g	1442 ± 243 μU/g protein	total energy intake, higher than that of intact animals (ovariectomized rats): 17%; Digestible energy intake (ovariectomized rats; [4]): 5511^a kJ; Enegery gain (ovariectomized rats; [4]): 903 kJ; Apparent energy (expenditure) (ovariectomized rats; calculated from energy intake and energy gain): 4609^a kJ; decrease of body fat ([1]; 20 days): 46%; decrease of retroperitoneal adipose tissue ([1]; 20 days): 78%; Retroperitoneal adipose tissue ([1]; enriched carbohydrate diet, 20 days oral, EM-652.HCl 0.5, E2 0.5, DHEA 100 mg/rat): 0.81 ± 0.17 g; Fat % ([1]; enriched carbohydrate diet, 20 days oral, EM-652.HCl 0.5, E2 0.5, DHEA 100 mg/rat, DEXA day 21): 10.3 ± 0.6%
Cl.O=C(c1ccc(OCCN2CCCCC2)cc1)c1c(-c2ccc(O)cc2)sc2cc(O)ccc12 [Raloxifene]	439 ± 13 g	451 ± 14 g	389 ± 14 g	367 ± 9 g	342 ± 12 g	960 ± 116 μU/g protein	0.307 ± 0.26 g	307 ± 8 g	13.8 ± 1.2 mmol/L	0.077 ± 0.10 nmol/L	1.39 ± 0.30 ng/mL	1.19 ± 0.08 mmol/L	1.20 ± 0.35 mmol/L	10.2 ± 2.0 μU/g protein	0.099 ± 0.003 g	230 ± 3 g	0.795 ± 0.055 g	579 ± 46 μU/g protein	0.245 ± 0.047 g	1510 ± 52 μU/g protein	effect on body fat (DEXA) (ovariectomized rat; 0.01-1 mg/kg orally once daily, 35 weeks, FIG. 1): less active than EM-800; increment of body fat and retroperitoneal adipose tissue by ovariectomy [3]: prevented; Fat % ([3]; DEXA, EE2 0.1, Raloxifene 1, EM-652.HCl 1 mg/kg oral, DHEA 80 mg/kg topical): 22.8 ± 1.6%; Left retroperitoneal adipose tissue [3, 6]: 1.41 ± 0.13 g; Right retroperitoneal adipose tissue [3, 6]: 1.29 ± 0.12 g; Serum insulin (in words) ([2]; 0.5 mg/rat): decreased; White adipose tissue retroperitoneal weight [2, 5]: 1.32 ± 0.24 g
